Key:
[1] = system: THP-1 cells (TNFα secretion on human IgG-coated plate); test: TNFα generation assay; format: cell-based; details: IFN-γ differentiated THP-1 cells, 7 hours, AlphaLISA, read-out: IC50 of TNFα generation inhibitory activity
Experimental: THP-1 cells (2×10^5 cells/ml), which were human monocytoid cells, were cultured in the presence of 10 ng/ml IFN-γ (Roche) for 2 days, and they were induced to differentiate into macrophage-like cells. The differentiation-induced THP-1 cells were recovered, and the cells (1×10^6 cell/ml) were then allowed to react with a predetermined concentration of test compound at room temperature for 30 minutes. On the other hand, 100 μl of human IgG (10 μg/ml, SIGMA-ALDRICH) diluted with PBS was added to a 96-well plate, and it was then incubated at room temperature overnight. Thereafter, the resultant was washed with PBS twice to produce a human IgG-coated plate. A cell fluid that contained a compound was plated on the obtained human IgG-coated plate (5×10^4 cells/well), and it was then cultured for 7 hours. Thereafter, the cultured solution was recovered, and the amount of TNFα secreted into the culture solution was then measured by the AlphaLISA method (PerkinElmer).

[2] = biological target: T1, glutathione S-transferase (GST)-linked full-length human Syk protein (Homo sapiens, UniProt P43405); test: Syk enzyme assay; format: biochemical; details: 0.83 nM Syk, time-resolved fluorescence; read-out: IC50 of Syk-inhibitory activity
T1 construct: glutathione S-transferase (GST)-linked full-length human Syk protein; purchased Carna Biosciences; host or cells: Baculovirus expression system
Summary of the method: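 Phosphotyrosine on a biotin-peptide substrate (0.5 μM) was read by time-resolved fluorescence at 615 and 665 nm with Eu-anti-pTyr antibody and APC-streptavidin after 1 h EDTA stop.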

Compound | IC50 [1] | IC50 [2]
COCCn1nc(C)c2cc(Nc3nc(N[C@H](C4CC4)[C@H](C)N)c(F)cc3C(N)=O)ccc21 [Example 2-133, 6-(((1R,2S)-2-amino-1-cyclopropylpropyl)amino)-5-fluoro-((1-(2-methoxyethyl)-3-methyl-1H-indazol-5-yl)amino)nicotinamide] | 65 to 130 nM | < 10 nM
COCCn1nc(C)c2cc(Nc3nc(N[C@H](CC(C)C)[C@H](C)N)c(F)cc3C(N)=O)ccc21 [Example 2-134, 6-(((2S,3R)-2-amino-5-methylhexan-3-yl)amino)-5-fluoro-2-((1-(2-methoxyethyl)-3-methyl-1H-indazol-5-yl)amino)nicotinamide] | 130 to 200 nM | < 10 nM
Cc1nn(CC(F)F)c2ccc(Nc3nc(N[C@@H](CN)CC(C)C)c(F)cc3C(N)=O)cc12 [Example 2-137] | 65 to 130 nM | < 10 nM
CCC[C@@H](Nc1nc(Nc2ccc3c(c2)c(C)nn3CC(F)F)c(C(N)=O)cc1F)[C@H](C)N [Example 2-138] | < 65 nM | < 10 nM
COC[C@@H](Nc1nc(Nc2ccc3c(c2)c(C)nn3CC(F)F)c(C(N)=O)cc1F)[C@H](C)N [Example 2-139, 6-(((2S,3S)-3-amino-1-methoxybutan-2-yl)amino)-2-((1-(2,2-difluoroethyl)-3-methyl-1H-indazol-5-yl)amino)-5-fluoronicotinamide] | 65 to 130 nM | < 10 nM
COc1ncc(Nc2nc(N[C@H](CC(C)C)[C@H](C)N)c(F)cc2C(N)=O)cc1-n1ccnn1 [Example 2-141, 6-(((2S,3R)-2-amino-5-methylhexan-3-yl)amino)-5-fluoro-2-((6-methoxy-5-(1H-1,2,3-triazol-1-yl)pyridin-3-yl)amino)nicotinamide] | 130 to 200 nM | 10 to 50 nM
CC[C@@H](Nc1nc(Nc2cc(Cl)c3c(cnn3C)c2)c(C(N)=O)cc1F)[C@H](C)N [Example 2-148, 6-(((2S,3R)-2-aminopentan-3-yl)amino)-2-((7-chloro-1-methyl-1H-indazol-5-yl)amino)-5-fluoronicotinamide] | 65 to 130 nM | < 10 nM
COC[C@@H](Nc1nc(Nc2cc(Cl)c3c(cnn3C)c2)c(C(N)=O)cc1F)[C@H](C)N [Example 2-149, 6-(((2S,3S)-3-amino-1-methoxybutan-2-yl)amino)-2-((7-chloro-1-methyl-1H-indazol-5-yl)amino)-5-fluoronicotinamide] | 65 to 130 nM | < 10 nM
COc1nn(C)c2c(F)cc(Nc3nc(N[C@@H]4CCCC[C@@H]4N)c(F)cc3C(N)=O)cc12 [Example 2-150, 6-(((1R,2S)-2-aminocyclohexyl)amino)-5-fluoro-2-((7-fluoro-3-methoxy-1-methyl-1H-indazol-5-yl)amino)nicotinamide] | 130 to 200 nM | < 10 nM
COc1nn(C)c2c(F)cc(Nc3nc(N[C@@H](CN)CC(C)C)c(F)cc3C(N)=O)cc12 [Example 2-151, (R)-6-((1-amino-4-methylpentan-2-yl)amino)-5-fluoro-2-((7-fluoro-3-methoxy-1-methyl-1H-indazol-5-yl)amino)nicotinamide] | 130 to 200 nM | < 10 nM
CC[C@@H](Nc1nc(Nc2cc(F)c3c(c2)c(OC)nn3C)c(C(N)=O)cc1F)[C@H](C)N [Example 2-152, 6-(((2S,3R)-2-aminopentan-3-yl)amino)-5-fluoro-2-((7-fluoro-3-methoxy-1-methyl-1H-indazol-5-yl)amino)nicotinamide] | 130 to 200 nM | < 10 nM
CCC[C@@H](Nc1nc(Nc2cc(F)c3c(c2)c(OC)nn3C)c(C(N)=O)cc1F)[C@H](C)N [Example 2-153, 6-(((2S,3R)-2-aminohexan-3-yl)amino)-5-fluoro-2-((7-fluoro-3-methoxy-1-methyl-1H-indazol-5-yl)amino)nicotinamide] | 130 to 200 nM | < 10 nM
COC[C@@H](Nc1nc(Nc2cc(F)c3c(c2)c(OC)nn3C)c(C(N)=O)cc1F)[C@H](C)N [Example 2-159, 6-(((2S,3S)-3-amino-1-methoxybutan-2-yl)amino)-5-fluoro-2-((7-fluoro-3-methoxy-1-methyl-1H-indazol-5-yl)amino)nicotinamide] | 65 to 130 nM | < 10 nM
CC(C)C[C@@H](Nc1nc(Nc2ccc3c(c2)c(OC(F)F)nn3C)c(C(N)=O)cc1F)[C@H](C)N [Example 2-172, 6-(((2S,3R)-2-amino-5-methylhexan-3-yl)amino)-2-((3-(difluoromethoxy)-1-methyl-1H-indazol-5-yl)amino)-5-fluoronicotinamide] | 130 to 200 nM | < 10 nM
COC[C@@H](Nc1nc(Nc2ccc3c(c2)c(OC(F)F)nn3C)c(C(N)=O)cc1F)[C@H](C)N [Example 2-173, 6-(((2S,3S)-3-amino-1-methoxybutan-2-yl)amino)-2-((3-(difluoromethoxy)-1-methyl-1H-indazol-5-yl)amino)-5-fluoronicotinamide] | 65 to 130 nM | < 10 nM
CCOC[C@@H](Nc1nc(Nc2ccc3c(cnn3C)c2)c(C(N)=O)cc1F)[C@H](C)N [Example 2-179, 6-(((2S,3S)-3-amino-1-ethoxybutan-2-yl)amino)-5-fluoro-2-((1-methyl-1H-indazol-5-yl)amino)nicotinamide] | 130 to 200 nM | 10 to 50 nM
CCOC[C@@H](Nc1nc(Nc2cccc3c2cnn3CC)c(C(N)=O)cc1F)[C@H](C)N [Example 2-180, 6-(((2S,3S)-3-amino-1-ethoxybutan-2-yl)amino)-2-((1-ethyl-1H-indazol-4-yl)amino)-5-fluoronicotinamide] | 130 to 200 nM | 10 to 50 nM
CCOC[C@@H](Nc1nc(Nc2ccc3c(cnn3CC)c2)c(C(N)=O)cc1F)[C@H](C)N [Example 2-182, 6-(((2S,3S)-3-amino-1-ethoxybutan-2-yl)amino)-2-((1-ethyl-1H-indazol-5-yl)amino)-5-fluoronicotinamide] | 65 to 130 nM | < 10 nM
CC(C)C[C@H](CN)Nc1nc(Nc2cc(F)c3c(c2)c(N(C)C)nn3C)c(C(N)=O)cc1F [Example 2-185, (R)-6-((1-amino-4-methylpentan-2-yl)amino)-2-((3-(dimethylamino)-7-fluoro-1-methyl-1H-indazol-5-yl)amino)-5-fluoronicotinamide] | 130 to 200 nM | < 10 nM
CC[C@@H](Nc1nc(Nc2cc(F)c3c(c2)c(N(C)C)nn3C)c(C(N)=O)cc1F)[C@H](C)N [Example 2-186, 6-(((2S,3R)-2-aminopentan-3-yl)amino)-2-((3-(dimethylamino)-7-fluoro-1-methyl-1H-indazol-5-yl)amino)-5-fluoronicotinamide] | 65 to 130 nM | < 10 nM
CCC[C@@H](Nc1nc(Nc2cc(F)c3c(c2)c(N(C)C)nn3C)c(C(N)=O)cc1F)[C@H](C)N [Example 2-187, 6-(((2S,3R)-2-aminohexan-3-yl)amino)-2-((3-(dimethylamino)-7-fluoro-1-methyl-1H-indazol-5-yl)amino)-5-fluoronicotinamide] | 65 to 130 nM | < 10 nM
COC[C@@H](Nc1nc(Nc2ccc3c(c2)c(C)nn3C)c(C(N)=O)cc1F)[C@H](C)N [Example 2-196, 6-(((2S,3S)-3-amino-1-methoxybutan-2-yl)amino)-2-((1,3-dimethyl-1H-indazol-5-yl)amino)-5-fluoronicotinamide] | 65 to 130 nM | < 10 nM
CCC[C@@H](Nc1nc(Nc2cnc(OCC)c(-n3ccnn3)c2)c(C(N)=O)cc1F)[C@H](C)N [Example 2-207, 6-(((2S,3R)-2-aminohexan-3-yl)amino)-2-((6-ethoxy-5-(1H-1,2,3-triazol-1-yl)pyridin-3-yl)amino)-5-fluoronicotinamide] | 65 to 130 nM | < 10 nM
Cc1nn(C)c2ccc(Nc3nc(N[C@@H]4CCOC[C@@H]4N)c(F)cc3C(N)=O)cc12 [Example 2-208, 6-(((3R,4R)-3-aminotetrahydro-2H-pyran-4-yl)amino)-2-((1,3-dimethyl-1H-indazol-5-yl)amino)-5-fluoronicotinamide] | < 65 nM | < 10 nM
Cn1nc(F)c2cc(Nc3nc(N[C@@H]4CCOC[C@@H]4N)c(F)cc3C(N)=O)ccc21 [Example 2-209, 6-(((3R,4R)-3-aminotetrahydro-2H-pyran-4-yl)amino)-5-fluoro-2-((3-fluoro-1-methyl-1H-indazol-5-yl)amino)nicotinamide] | 65 to 130 nM | < 10 nM
COc1nn(C)c2ccc(Nc3nc(N[C@@H]4CCOC[C@@H]4N)c(F)cc3C(N)=O)cc12 [Example 2-210, 6-(((3R,4R)-3-aminotetrahydro-2H-pyran-4-yl)amino)-5-fluoro-2-((3-methoxy-1-methyl-1H-indazol-5-yl)amino)nicotinamide] | < 65 nM | < 10 nM
COc1nn(C)c2c(F)cc(Nc3nc(N[C@@H]4CCOC[C@@H]4N)c(F)cc3C(N)=O)cc12 [Example 2-211, 6-(((3R,4R)-3-aminotetrahydro-2H-pyran-4-yl)amino)-5-fluoro-2-((7-fluoro-3-methoxy-1-methyl-1H-indazol-5-yl)amino)nicotinamide] | 65 to 130 nM | < 10 nM

Source: patent publication US9051310B2, “Nicotinamide derivative or salt thereof” (FUJIFILM Corporation, priority 2011, dated 2015)
